Patent US11291200B2, “Application of viable cell monitor to cryopreservation of plant cells” (EAST CHINA UNIVERSITY OF SCIENCE AND TECHNOLOGY, priority 2016, dated 2022)

Tests used:
[1] = test system: suspension cells from Siraitia grosvenorii; assay: Cell viability evaluation by viable cell monitor (viable cell capacitance, viability preservation rate after cryopreservation); format: cell-based; settings: for A1 (viable cell capacitance of the pre-treated cell): before freezing; for A3 (basal capacitance of the cell): cell death totally; for A2 (viable cell capacitance after resuscitation) / Viability preservation rate: -80° C. 24 h
Protocol: Taking a certain number of cells in the logarithmic growth phase for centrifugation (or sedimentation) and adding an equal amount of pre-treatment fluids after removing the supernatant. […] Pre-treated cells are centrifuged. Adding cryoprotectants after removing the supernatant and incubating at 0-4° C. and 110 rpm for 45 min. After incubation, the cells are first cooled at −20° C. for 40 min and then cooled in the −80° C. cryogenic refrigerator. Frozen cells are thawed in a water bath at 39° C., for 2-3 min. […] Mixing evenly the suspension cells and then measuring the capacitance of viable cells with a viable cell monitor. The viable cell capacitance of the pre-treated cell is denoted as A1; the viable cell capacitance after resuscitation is denoted as A2; and the basal capacitance of the cell is denoted as A3 (capacitance when cell death totally). […] The basic capacitance of cells: the cell suspension is boiled in boiling water for 1 h, and then subjected to ultrasonication for 40 min. The capacitance measured is the basic capacitance.

[2] = test system: suspension cells from Siraitia grosvenorii; assay: Measurement of mitochondrial activity (TTC) after cryopreservation; format: cell-based; settings: for TTC value/100 mg of cells: -80° C. 24 h; for TTC value score: per-level statistic of Table 1
Protocol: After mixing evenly, performing dark culture at 25° C. for 16 h. After the dark culture, the supernatant is removed by centrifugation and the cells are washed with distilled water three times. Adding with 4 mL of methanol and placing in a 60° C. water bath for 50 min, gently blow twice with a pipette tip until the cells have detached to colourless.

[3] = pre-treatment agent 0.2M, frozen medium liquid medium+10% DMSO+10% sucrose
[4] = pre-treatment agent 0.35M, frozen medium liquid medium+10% DMSO+10% sucrose
[5] = pre-treatment agent 0.5M, frozen medium liquid medium+10% DMSO+10% sucrose
[6] = Siraitia grosvenorii, 45 min, 5 %
[7] = Siraitia grosvenorii, 45 min, 10 %
[8] = 0.2 M sucrose as pre-treatment agent, cryoprotectant liquid medium+10% DMSO+10% sucrose, compared with the control without pre-treatment
[9] = 0.2 M sucrose pre-treatment time 1 h
[10] = 0.2 M sucrose pre-treatment time 1 h, liquid medium+10% DMSO+10% sucrose
[11] = 0.2 M sucrose pre-treatment time 2 h
[12] = 0.2 M sucrose pre-treatment time 2 h, liquid medium+10% DMSO+10% sucrose
[13] = 0.2 M sucrose pre-treatment time 5 h
[14] = 0.2 M sucrose pre-treatment time 5 h, liquid medium+10% DMSO+10% sucrose
[15] = 0.2 M sucrose pre-treatment time 9 h
[16] = 0.2 M sucrose pre-treatment time 9 h, liquid medium+10% DMSO+10% sucrose
[17] = 0.2 M sucrose pre-treatment time 22 h
[18] = 0.2 M sucrose pre-treatment time 22 h, liquid medium+10% DMSO+10% sucrose
[19] = 0.2 M sucrose pre-treatment time 46 h
[20] = 0.2 M sucrose pre-treatment time 46 h, liquid medium+10% DMSO+10% sucrose

Structure (SMILES): OC[C@H]1O[C@H](O[C@H]2O[C@H](CO)[C@@H](O)[C@H](O)[C@H]2O)[C@H](O)[C@@H](O)[C@@H]1O [Trehalose, trehalose]
- A1 (viable cell capacitance of the pre-treated cell) ([1]; pre-treatment agent 0.2M): 41.05 pF/cm
- A3 (basal capacitance of the cell) ([1]; pre-treatment agent 0.2M): 7.77 pF/cm
- A2 (viable cell capacitance after resuscitation) [1, 3]: 23.40 pF/cm
- Viability preservation rate [1, 3]: 46.97%
- A1 (viable cell capacitance of the pre-treated cell) ([1]; pre-treatment agent 0.35M): 34.06 pF/cm
- A3 (basal capacitance of the cell) ([1]; pre-treatment agent 0.35M): 7.09 pF/cm
- A2 (viable cell capacitance after resuscitation) [1, 4]: 18.80 pF/cm
- Viability preservation rate [1, 4]: 43.42%
- A1 (viable cell capacitance of the pre-treated cell) ([1]; pre-treatment agent 0.5M): 21.20 pF/cm
- A3 (basal capacitance of the cell) ([1]; pre-treatment agent 0.5M): 5.50 pF/cm
- A2 (viable cell capacitance after resuscitation) [1, 5]: 10.65 pF/cm
- Viability preservation rate [1, 5]: 32.80%
- TTC value/100 mg of cells [2, 3]: 0.767
- TTC value/100 mg of cells [2, 4]: 0.841
- TTC value/100 mg of cells [2, 5]: 0.224

Structure (SMILES): OC[C@@H](O)[C@@H](O)[C@H](O)[C@@H](O)CO [sorbitol]
- Viability preservation rate score ([1]; cryoprotectant level 5%, per-level statistic of Table 1): 31.20%
- Viability preservation rate score ([1]; cryoprotectant level 10%, per-level statistic of Table 1): 40.65%
- TTC value score ([2]; cryoprotectant level 5%): 0.652
- TTC value score ([2]; cryoprotectant level 10%): 0.846

Structure (SMILES): C[S+](C)[O-] [DMSO, dimethyl sulfoxide]
- Viability preservation rate score [1, 6]: 35.90%
- Viability preservation rate score [1, 7]: 37.09%
- TTC value score ([2]; cryoprotectant level 5%): 0.633
- TTC value score ([2]; cryoprotectant level 10%): 0.792

Structure (SMILES): OC[C@H]1O[C@@](CO)(O[C@H]2O[C@H](CO)[C@@H](O)[C@H](O)[C@H]2O)[C@@H](O)[C@@H]1O [Sucrose, sucrose]
- increase of cell viability preservation rate [1, 8]: 29.18%
- A1 (viable cell capacitance of the pre-treated cell) [1, 9]: 62.11 pF/cm
- A3 (basal capacitance of the cell) [1, 9]: 8.41 pF/cm
- A2 (viable cell capacitance after resuscitation) [1, 10]: 14.46 pF/cm
- A1 (viable cell capacitance of the pre-treated cell) [1, 11]: 61.68 pF/cm
- A3 (basal capacitance of the cell) [1, 11]: 8.78 pF/cm
- A2 (viable cell capacitance after resuscitation) [1, 12]: 15.63 pF/cm
- A1 (viable cell capacitance of the pre-treated cell) [1, 13]: 61.19 pF/cm
- A3 (basal capacitance of the cell) [1, 13]: 11.09 pF/cm
- A2 (viable cell capacitance after resuscitation) [1, 14]: 21.21 pF/cm
- A1 (viable cell capacitance of the pre-treated cell) [1, 15]: 58.51 pF/cm
- A3 (basal capacitance of the cell) [1, 15]: 11.3 pF/cm
- A2 (viable cell capacitance after resuscitation) [1, 16]: 25.85 pF/cm
- A1 (viable cell capacitance of the pre-treated cell) [1, 17]: 56.48 pF/cm
- A3 (basal capacitance of the cell) [1, 17]: 10.43 pF/cm
- A2 (viable cell capacitance after resuscitation) [1, 18]: 22.86 pF/cm
- A1 (viable cell capacitance of the pre-treated cell) [1, 19]: 45.92 pF/cm
- A3 (basal capacitance of the cell) [1, 19]: 10.94 pF/cm
- A2 (viable cell capacitance after resuscitation) [1, 20]: 14.60 pF/cm
- Viability preservation rate score [1, 6]: 31.15%
- Viability preservation rate score [1, 7]: 42.98%
- A1 (viable cell capacitance of the pre-treated cell) ([1]; pre-treatment agent 0.2M): 42.25 pF/cm
- A3 (basal capacitance of the cell) ([1]; pre-treatment agent 0.2M): 10.00 pF/cm
- A2 (viable cell capacitance after resuscitation) [1, 3]: 26.44 pF/cm
- A1 (viable cell capacitance of the pre-treated cell) ([1]; pre-treatment agent 0.35M): 30.55 pF/cm
- A3 (basal capacitance of the cell) ([1]; pre-treatment agent 0.35M): 8.49 pF/cm
- A2 (viable cell capacitance after resuscitation) [1, 4]: 17.01 pF/cm
- A1 (viable cell capacitance of the pre-treated cell) ([1]; pre-treatment agent 0.5M): 24.62 pF/cm
- A3 (basal capacitance of the cell) ([1]; pre-treatment agent 0.5M): 6.03 pF/cm
- A2 (viable cell capacitance after resuscitation) [1, 5]: 11.81 pF/cm
- increase of mitochondrial activity (TTC value) [2, 8]: 36.72%
- TTC value/100 mg of cells [2, 10]: 0.195
- TTC value/100 mg of cells [2, 12]: 0.201
- TTC value/100 mg of cells [2, 14]: 0.225
- TTC value/100 mg of cells [2, 16]: 0.376
- TTC value/100 mg of cells [2, 18]: 0.319
- TTC value/100 mg of cells [2, 20]: 0.106
- TTC value score ([2]; cryoprotectant level 5%): 0.506
- TTC value score ([2]; cryoprotectant level 10%): 0.847
- TTC value/100 mg of cells [2, 3]: 0.916
- TTC value/100 mg of cells [2, 4]: 0.479
- TTC value/100 mg of cells [2, 5]: 0.232
